Reference: patent US12324832B2, “Application of heptoglycan-chain-containing oligosaccharide compounds in preparation of vaccine against Helicobacter pylori” (Jiangnan University, priority 2020, dated 2025)
“Also recorded” adds a separate entry of the source.

Test system: serum antibodies generated against the Helicobacter pylori serotype O:6 purified polysaccharide
Assay: Oligosaccharide chip: binding of antiserum antibodies to spotted synthetic oligosaccharides
Design: species or system rabbit
Conditions: spotting concentration 1 mM; for fluorescence intensity on oligosaccharide chip: FIG. 6A/6B, serum diluted 1:50; for recognition and binding by antibodies in the antiserum: oligosaccharide fixed on chip via amino linker, antiserum against H. pylori serotype O6 LPS, anti-rabbit IgG FITC-labeled secondary antibody
Description: FIG. 6A: Detection of the antibody binding activity of the synthetic oligosaccharides in the oligosaccharide chip using an anti-rabbit IgG FITC-labeled secondary antibody. The chip spotting mode is shown as follows: • 1: trisaccharide 1, spotting concentration is 1 mM; • 2: tetrasaccharide 2, spotting concentration is 1 mM; • 3: heptoglycan-chain-containing pentasaccharide 3, spotting concentration is 1 mM; • 4: heptoglycan-chain-containing pentasaccharide 4, spotting concentration is 1 mM; • 5: […] containing only Lewis O-antigen, spotting concentration is 1 mM; • 6: heptoglycan-chain-containing octasaccharide 6, spotting concentration is 1 mM; • 7: tridecasaccharide 7 containing Lewis O-antigen, spotting concentration is 1 mM; and • 8: Helicobacter pylori serotype O6 lipopolysaccharide, spotting concentration is 1 mg/mL.
FIG. 6B: quantitative measurements of average fluorescence intensity of spots 1-7 in FIG. 6A. Error bars are standard deviations of 4 different points from two different detection areas.
A chemically synthesized oligosaccharide antigen was fixed onto the chip surface through an amino linker, and the antiserum was incubated with the oligosaccharide chip and then incubated with the secondary antibody.
Under a chip scanner, the fluorescence of the binding of the oligosaccharide fragment and the antibody can be obtained. In this way, the binding strength of the oligosaccharide fragment to the antibody in the serum can be quantified, the amount of the chemically synthesized oligosaccharide and antiserum can be saved, and the result can be reflected clearly.
The experimental procedure is as follows: • (1) Activated amino slides were spotted with a biochip spotter. After the completion of the spotting, incubation was carried out overnight at a temperature of 26° C. and a humidity of 55%. • (2) Then the slides were immersed in a solution B (50 nM Na2HPO4, 100 nM ethanolamine in water) at 50° C. for 1 hour. The slides were washed with ultrapure water 3 times, and the residual water was removed by centrifugation. • (3) 3% BSA (w/v) in PBS was used for blocking at 4° C. overnight. The slides were washed with PBST (PBS containing 0.1% tween) once, washed with PBS twice, and centrifugally dried. • (4) The slides were placed into a 16-well incubator (ProPlate). 120 μL of mouse serum sample diluted 1:50 in 1% BSA (w/v) in PBS was added to each well, and incubated in a 37° C. wet box in the dark for 1 hour. The sample was removed, and the incubator was washed with 150 μL of PBST 3 times. • (5) A secondary antibody diluted 1:400 in 1% BSA (w/v) in PBS was added, and incubated in a wet box at 37° C. in the dark for 45 minutes. The secondary antibody solution was removed, and the incubator was washed with 150 μL of PBST 3 times. The 16-well incubator was removed, washed with ultrapure water, and washed with ultrapure water for 15 minutes. The residual water was removed by centrifugation. Scanning was carried out using the chip scanner. Immunogenicity Detection of Helicobacter pylori Serotype O:6 Synthetic Oligosaccharide Fragment:
NHS slides (SurModics, DN01-0025) were spotted with synthetic oligosaccharide compounds 1 to 7 using a biochip spotter (Jiangsu RayMe Biotechnology Co., Ltd.). After the completion of the spotting, incubation was carried out overnight at a temperature of 26° C. and a humidity of 55%. Then the slides were immersed in a solution B (50 nM Na2HPO4, 100 nM ethanolamine in water) at 50° C. for 1 hour. The slides were washed with ultrapure water 3 times, and the residual water was removed by centrifugation. 3% BSA (w/v) in PBS was used for blocking at 4° C. overnight. The slides were washed with PBST (PBS containing 0.1% tween) once, washed with PBS twice, and centrifugally dried. The slides were placed into a 16-well incubator (ProPlate). 120 μL of mouse serum sample diluted 1:50 in 1% BSA (w/v) in PBS was added to each well, and incubated in a 37° C. wet box in the dark for 1 hour. […]

SMILES	fluorescence intensity on oligosaccharide chip	recognition and binding by antibodies in the antiserum
NCCCO[C@H]1OC([C@H](O)CO)[C@@H](O)[C@H](O)C1O[C@H]1OC([C@H](O)CO)[C@@H](O)[C@H](O)C1O[C@H]1OC([C@@H](CO)O[C@H]2OC([C@H](O)CO)[C@@H](O)[C@H](O[C@H]3OC([C@H](O)CO)[C@@H](O)C(O)C3O)C2O)[C@@H](O)[C@H](O)C1O (stereo partly drawn) [Compound 3]	higher fluorescence intensity	well recognized; also recorded: obvious and strong recognition and binding
NCCCO[C@H]1OC([C@H](O)CO)[C@@H](O)[C@H](O)C1O[C@H]1OC([C@H](O)CO)[C@@H](O)[C@H](O)C1O[C@H]1OC([C@@H](CO)O[C@H]2OC([C@H](O)CO)[C@@H](O)[C@H](O[C@H]3O[C@@H]([C@H](O)CO)[C@@H](O)C(O[C@H]4OC([C@H](O)CO)[C@@H](O)[C@H](O[C@H]5O[C@@H]([C@H](O)CO)[C@@H](O)C(O[C@H]6OC([C@H](O)CO)[C@@H](O)[C@H](O)C6O)C5O)C4O)C3O)C2O)[C@@H](O)[C@H](O)C1O (stereo partly drawn) [Compound 6]	higher fluorescence intensity	well recognized; also recorded: obvious and strong recognition and binding
NCCCO[C@H]1OC([C@H](O)CO)[C@@H](O)[C@H](O[C@H]2O[C@@H]([C@H](O)CO)[C@@H](O)C(O[C@H]3OC([C@H](O)CO)[C@@H](O)[C@H](O[C@H]4O[C@@H]([C@H](O)CO)[C@@H](O)C(O[C@H]5OC([C@H](O)CO)[C@@H](O)[C@H](O)C5O)C4O)C3O)C2O)C1O (stereo partly drawn) [Compound 4]	higher fluorescence intensity	well recognized; also recorded: obvious and strong recognition and binding
